Data: article PMC2642990, “The Glycogen-Binding Domain on the AMPK β Subunit Allows the Kinase to Act as a Glycogen Sensor” (Cell Metabolism, 2009)

How the values were obtained:
native rat liver AMPK = native rat liver AMPK (Rattus norvegicus, UniProt P80386); test: AMPK kinase assay (SAMS peptide), native rat liver AMPK in solution; assay type: biochemical; conditions: oligosaccharides; read-out: IC50 / half-maximal effect, inhibition of AMPK
Method: We next tested the effect of glycogen on the activity of the native AMPK complex purified from rat liver ([Hawley et al., 1996]). […] The bovine liver glycogen inhibited AMPK completely with an IC50 (concentration causing half-maximal inhibition) of 30 ± 9 mM glucose equivalents (Figure 2A).
(§1) Figure 2 Allosteric Inhibition of AMPK by Different Glycogen Preparations (A) Concentration dependence of inhibition of native rat liver AMPK by preparations of bovine and rat liver glycogen; glycogen concentrations expressed as glucose produced after total hydrolysis. Data were fitted to an IC50 equation (see Supplemental Experimental Procedures), and curves were generated using the estimated best-fit parameters. (B) Concentration dependence of inhibition of native rat liver AMPK by bovine liver glycogen in the presence and absence of 200 μM AMP; curves were generated as in (A). (C) Inhibition by bovine liver glycogen of recombinant AMPK complex (myc-α1:β1:γ1) containing full-length (1–270) or truncated β1 subunit lacking the GBD (172–270). Complexes were expressed in CCL13 cells and purified by immunoprecipitation prior to assay with or without glycogen (200 mM glucose equivalents). Data are means ± SEM (n = 3). ^∗Activity different from control without glycogen by t test (p < 0.05). (D) Inhibition by bovine liver glycogen (200 mM glucose equivalents) of purified, native rat liver AMPK (a mixture of α1β1γ1 and α2β1γ1 complexes) that had been recovered by immunoprecipitation (IP) using anti-α1, anti-α2, or a mixture of anti-α1/-α2 antibodies or assayed in solution without immunoprecipitation. Results are expressed as percentages of the activity in controls without glycogen, and data are mean ± SEM (n = 3). (E) Absorption spectra of bovine and rat liver glycogen preparations in complex with iodine. […]
Purification of Native Rat Liver, AMPK, Recombinant AMPK, and AMPK Assays AMPK was purified from rat liver as far as the gel filtration step (Hawley et al., 1996). The kinase was assayed using the SAMS peptide (Davies et al., 1989). IC50 values for inhibition were estimated by fitting data using GraphPad Prism to the equation: Activity = Residual + Maximum - (Maximum × [Inhibitor]/(IC50+[Inhibitor])) where Residual is the activity in the presence of maximal inhibition, Maximum is the maximal inhibition and [inhibitor] is the concentration of the inhibitory molecule. For recombinant AMPK, constructs encoding myc-tagged α1, β1 and γ1 subunits of AMPK were co-transfected into CCL13 cells using modifications of previous methods (Woods et al., 1996). DNA (10 µg) was dissolved in sterile water (450 µl) to which 50 μl of 2.5 M CaCl2 was added, and the solution vortexed for 1 min. […]

[1] = molecular target: T1, recombinant AMPK complex (myc-α1:β1:γ1) (Rattus norvegicus, UniProt P80386); test: recombinant wild-type AMPK expressed in CCL13 cells, assayed in anti-myc immunoprecipitates; assay type: biochemical; conditions: 20 mM; Figure 5D
T1 construct: recombinant AMPK complex (myc-α1:β1:γ1) containing full-length (1–270) or truncated β1 subunit lacking the GBD (172–270); made in house; host or cells: human CCL13 cells, co-transfected; isolated by anti-myc immunoprecipitation
T1 sequence (P80386 whole entry, the tested form may be a part): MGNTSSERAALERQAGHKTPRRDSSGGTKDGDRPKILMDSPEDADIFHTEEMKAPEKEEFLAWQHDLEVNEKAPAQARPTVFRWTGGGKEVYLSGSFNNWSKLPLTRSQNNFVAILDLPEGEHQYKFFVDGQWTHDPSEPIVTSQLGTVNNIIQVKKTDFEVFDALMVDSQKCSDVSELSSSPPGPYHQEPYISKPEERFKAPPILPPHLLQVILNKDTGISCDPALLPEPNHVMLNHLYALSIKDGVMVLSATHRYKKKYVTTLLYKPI
T1 sequence (P54645 13-559 partner limits assumed): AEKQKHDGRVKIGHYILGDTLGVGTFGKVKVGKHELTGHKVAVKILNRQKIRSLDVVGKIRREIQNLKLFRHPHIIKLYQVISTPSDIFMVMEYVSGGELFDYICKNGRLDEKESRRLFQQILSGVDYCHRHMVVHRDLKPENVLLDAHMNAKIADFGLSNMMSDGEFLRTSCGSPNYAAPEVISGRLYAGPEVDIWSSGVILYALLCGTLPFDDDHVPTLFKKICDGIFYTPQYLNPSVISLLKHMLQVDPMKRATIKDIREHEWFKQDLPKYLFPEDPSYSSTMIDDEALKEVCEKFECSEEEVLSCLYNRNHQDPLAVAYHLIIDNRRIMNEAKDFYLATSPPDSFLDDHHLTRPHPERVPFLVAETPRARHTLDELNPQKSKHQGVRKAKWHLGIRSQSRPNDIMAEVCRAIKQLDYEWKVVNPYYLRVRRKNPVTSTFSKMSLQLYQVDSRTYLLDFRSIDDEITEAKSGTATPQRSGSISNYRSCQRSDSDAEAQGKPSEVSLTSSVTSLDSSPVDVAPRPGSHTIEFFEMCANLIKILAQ
T1 sequence (P80385 whole entry partner, the tested form may be a part): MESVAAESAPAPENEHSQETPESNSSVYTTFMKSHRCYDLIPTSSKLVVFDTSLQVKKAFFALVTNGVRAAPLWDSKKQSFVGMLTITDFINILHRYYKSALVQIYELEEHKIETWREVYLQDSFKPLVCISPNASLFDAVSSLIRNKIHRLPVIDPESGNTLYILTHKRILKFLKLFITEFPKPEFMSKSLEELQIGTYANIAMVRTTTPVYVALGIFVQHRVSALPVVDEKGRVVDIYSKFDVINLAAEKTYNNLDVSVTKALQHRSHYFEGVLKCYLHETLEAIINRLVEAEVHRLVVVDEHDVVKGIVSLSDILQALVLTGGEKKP
From the text: as §1, with “(D) Inhibition by bovine liver glycogen (200 mM glucose equivalents) of purified, native rat liver AMPK (a mixture of α1β1γ1 and α2β1γ1 complexes) that had been recovered by immunoprecipitation (IP) using anti-α1, anti-α2, or a mixture of anti-α1/-α2 antibodies or assayed in solution without immunoprecipitation.” left out, “3).” for “3). (E) Absorption spectra of bovine and rat liver glycogen preparations in complex with iodine.”

native rat liver AMPK, sequence (P80386 2-270): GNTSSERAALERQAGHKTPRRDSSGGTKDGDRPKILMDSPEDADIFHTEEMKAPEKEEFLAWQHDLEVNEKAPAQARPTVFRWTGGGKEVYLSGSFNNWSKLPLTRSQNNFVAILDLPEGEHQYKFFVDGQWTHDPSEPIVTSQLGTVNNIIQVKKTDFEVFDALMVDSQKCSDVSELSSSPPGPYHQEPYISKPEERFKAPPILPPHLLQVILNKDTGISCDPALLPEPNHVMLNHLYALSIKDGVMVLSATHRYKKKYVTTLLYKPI
native rat liver AMPK, sequence (P54645 whole entry partner): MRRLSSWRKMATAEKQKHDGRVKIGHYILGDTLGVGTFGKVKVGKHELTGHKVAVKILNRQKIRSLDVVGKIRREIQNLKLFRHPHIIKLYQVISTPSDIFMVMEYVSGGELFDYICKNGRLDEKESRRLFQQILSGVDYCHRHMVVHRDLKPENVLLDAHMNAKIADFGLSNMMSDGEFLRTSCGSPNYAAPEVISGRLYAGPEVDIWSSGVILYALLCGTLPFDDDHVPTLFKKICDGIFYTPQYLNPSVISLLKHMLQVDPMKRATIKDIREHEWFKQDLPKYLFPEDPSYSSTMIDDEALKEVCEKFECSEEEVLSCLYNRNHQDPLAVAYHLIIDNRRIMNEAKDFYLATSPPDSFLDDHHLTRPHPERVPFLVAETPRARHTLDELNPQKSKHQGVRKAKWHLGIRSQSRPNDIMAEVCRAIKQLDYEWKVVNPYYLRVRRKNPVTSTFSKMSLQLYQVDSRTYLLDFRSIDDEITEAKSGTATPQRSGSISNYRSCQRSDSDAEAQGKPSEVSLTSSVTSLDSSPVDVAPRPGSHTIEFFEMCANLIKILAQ
native rat liver AMPK, sequence (Q09137 whole entry partner): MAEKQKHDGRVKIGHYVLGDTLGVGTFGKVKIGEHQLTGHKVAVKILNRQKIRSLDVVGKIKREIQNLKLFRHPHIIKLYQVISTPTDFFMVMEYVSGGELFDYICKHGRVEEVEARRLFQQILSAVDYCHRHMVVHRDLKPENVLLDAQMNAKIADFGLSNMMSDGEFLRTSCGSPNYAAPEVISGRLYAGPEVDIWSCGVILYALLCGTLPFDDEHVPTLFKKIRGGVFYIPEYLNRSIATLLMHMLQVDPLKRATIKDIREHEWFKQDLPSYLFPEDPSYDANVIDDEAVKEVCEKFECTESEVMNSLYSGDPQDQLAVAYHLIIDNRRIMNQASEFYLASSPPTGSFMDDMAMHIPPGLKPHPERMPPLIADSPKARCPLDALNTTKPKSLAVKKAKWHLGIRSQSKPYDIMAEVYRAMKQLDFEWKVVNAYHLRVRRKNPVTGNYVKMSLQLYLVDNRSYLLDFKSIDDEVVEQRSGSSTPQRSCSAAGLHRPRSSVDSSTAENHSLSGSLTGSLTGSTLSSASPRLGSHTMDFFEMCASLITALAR
native rat liver AMPK, sequence (P80385 whole entry partner): as the sequence (P80385 whole entry partner, the tested form may be a part) above

**Q.** Which IC50 (native rat liver AMPK) does the source give for OC[C@H]1O[C@H](OC[C@H]2OC(O)[C@H](O)[C@@H](O)[C@@H]2O)[C@H](O)[C@@H](O)[C@@H]1O (some centres unmarked) [isomaltose] here?
**A.** 16 mM

**Q.** What about the “inhibition of wild-type recombinant α1β1γ1” value [1] of the same molecule?
**A.** inhibited
